Measurements taken from PubChem BioAssay AID687029 (Broad Institute, 2013).

Test system: RMG-1 viability, CellTiterGlo ATP luminescence, 96 h
Experiment: cytotoxicity in PAX8-dependent RMG-1 cells, dose response, cell-based, cherry-pick (AID 687029)

SMILES | AC50 [nM]
O=S(=O)(NCC1CCCO1)c1cnc(Cl)c(Br)c1 (stereo not given) | < 260
C[C@@H]1CN([C@@H](C)CO)C(=O)Cc2cc(NS(=O)(=O)c3ccc(Cl)cc3)ccc2O[C@H]1CN(C)Cc1ccc(Oc2ccccc2)cc1 | < 260
CCCNC(=O)Nc1ccc2c(c1)OC[C@H](C)N(Cc1ccc(-c3ccccn3)cc1)C[C@@H](C)[C@@H](OC)CN(C)C2=O | < 260
C=C1C(=O)C2=CC1CCC(=O)C1(C)CCC(OC(C)=O)C(C)(C)C1CC2O (stereo not given) | < 260
COc1cc2nc(C3CCC3)nc(N3CCN(c4ccccc4OC)CC3)c2cc1OC | < 260
COc1ccc(C(=O)NC(=S)NNC(=O)c2c(-c3ccccc3)noc2C)cc1 | < 260
Cc1cccc(N(Cc2cc(=O)[nH]c3ccccc23)C(=O)CCl)c1 | < 260
Cc1nc(Nc2nc(CSc3nc4ccccc4[nH]3)cc(=O)[nH]2)nc2ccccc12 | < 260
C#CCN(C[C@@H]1[C@@H](OC(=O)NCC2CCCCC2)[C@@H](OC(=O)NCC2CCCCC2)Cn2c(=O)ccc(=O)n21)S(=O)(=O)c1ccc(C)cc1 | < 260
CCCC(=O)NC(c1ccc(C(C)C)cc1)c1ccc2cccnc2c1O (stereo not given) | < 260
Cc1ccsc1/C=N/Nc1cccc(C(=O)O)c1 | 13200
O=C(Nc1ccc(Cl)c(Cl)c1)N[C@@H]1CC[C@H](CCn2cc(C3CCCCC3)nn2)O[C@H]1CO | < 260
Cc1ccc(S(=O)(=O)CC(CN2CCCCC2)N2CCCCC2)cc1 (stereo not given) | < 260
CCSc1cc(N2CCOCC2)nc(-c2ccc(Cl)cc2)n1 | < 260
COc1ccc(F)cc1-c1cc(NC=O)c2ncc(-c3cc(OC)c(OC)c(OC)c3)n2c1 | < 260
CCOc1ccc(C(=O)C(CCC(CN(C)C)C(=O)c2ccc(OCC)cc2)CN(C)C)cc1 (stereo not given) | < 260
c1cc2c(cc1C1=NNC(=NC3CC3)SC1)OCCO2 | < 260
CCCCN=C[C@]12CCC(O)CC1(O)CCC1[C@@H]2CC[C@]2(C)[C@H](C3C=CC(=O)O3)CCC12O (stereo not given in full) | < 260
C[C@H](CO)N1C[C@H](C)[C@@H](CN(C)S(=O)(=O)c2ccc(Cl)cc2)OCCCC[C@H](C)Oc2ccc(NS(=O)(=O)c3ccc(Cl)cc3)cc2C1=O | < 260
C[C@@H]1CCCCO[C@@H](CN(C)S(=O)(=O)c2ccc(Cl)cc2)[C@H](C)CN([C@H](C)CO)C(=O)c2cc(NS(=O)(=O)c3ccc(F)cc3)ccc2O1 | 1720
CCc1cc(-c2n[nH]c(C)c2-c2nc3ccccc3n2C)c(O)cc1O | < 260
COc1ccc(NC(=O)Nc2ccc3c(c2)C(=O)N([C@@H](C)CO)C[C@@H](C)[C@@H](CN(C)CC2CCCCC2)OCCCC[C@@H](C)O3)cc1 | < 260
CCCn1c(C)cc(C(=O)CN2C(=O)c3ccccc3S2(=O)=O)c1C | < 260
Cn1c(CCN2CCCC2)nc2cc(NS(=O)(=O)c3ccccc3)ccc21 | < 260
CN1c2ccc(-c3cccc(F)c3)cc2[C@@H]2[C@@H](CCN2C(=O)Cc2ccccc2)[C@@H]1CO | 479
COc1ccc(C2=NNC(=Nc3cc(S(=O)(=O)N(C)C)ccc3C)SC2)c(OC)c1 | < 260
C[C@H](O)[C@@H]1CN2CCc3c([nH]c4ccc(-c5ccc6c(c5)OCO6)cc34)[C@@H]2C[C@@H]1N(C)C(=O)NC1CCCCC1 | < 260
COc1ccc(C(=O)c2ccc(Cl)c([N+](=O)[O-])c2)cc1 | < 260
Cc1nc2sc(C(c3ccco3)N3CCN(C(c4ccccc4)c4ccccc4)CC3)c(O)n2n1 (stereo not given) | < 260
Cc1cc(C)c2c(N)c(C(=O)Nc3ncc(C)s3)sc2n1 | 1010
